As usually defined, the Ki is the equilibrium dissociation constant of an inhibitor or competing ligand from its target.

Ki data for 23 compounds are collected here from patent US8461328B2, “Tricyclic heterocyclic compounds, compositions and methods of use thereof” (Genentech, Inc., priority 2010, dated 2013).

Where a name gives a salt, the structure may show the parent alone.

Holding throughout (format): biochemical
One assay concerns the target T1, JAK2 (Homo sapiens, UniProt O60674).
T1 construct: made in house; host or cells: SF9 insect cells (baculovirus)
Kind of assay: JAK2 inhibition (Table 4). To be noted: read-out: JAK2 Ki.

The next assay addresses T2, JAK3 (Homo sapiens, UniProt P52333).
T2 construct: made in house; host or cells: SF9 insect cells (baculovirus)
In words: JAK3 inhibition (Table 4). To be noted: read-out: JAK3 Ki.

In the next assay the target is T3, JAK1 (Homo sapiens, UniProt P23458).
T3 construct: made in house; host or cells: SF9 insect cells (baculovirus)
In words: JAK1 inhibition (Table 4). To be noted: read-out: JAK1 Ki.

The target of a further assay is T4, TYK2 (Homo sapiens, UniProt P29597).
T4 construct: made in house; host or cells: SF9 insect cells (baculovirus)
T4 sequence (P29597 873-1187): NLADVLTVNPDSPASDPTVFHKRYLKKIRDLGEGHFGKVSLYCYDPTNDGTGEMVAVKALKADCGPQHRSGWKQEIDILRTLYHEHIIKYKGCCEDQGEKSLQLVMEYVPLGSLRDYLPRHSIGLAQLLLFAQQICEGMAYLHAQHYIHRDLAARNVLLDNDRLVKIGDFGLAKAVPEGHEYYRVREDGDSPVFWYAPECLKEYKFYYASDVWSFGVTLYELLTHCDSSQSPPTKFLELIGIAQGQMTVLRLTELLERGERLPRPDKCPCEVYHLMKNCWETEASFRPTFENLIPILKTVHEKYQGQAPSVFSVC
Kind of assay: TYK2 inhibition (Table 4).

T3 sequence (P23458 852-1154): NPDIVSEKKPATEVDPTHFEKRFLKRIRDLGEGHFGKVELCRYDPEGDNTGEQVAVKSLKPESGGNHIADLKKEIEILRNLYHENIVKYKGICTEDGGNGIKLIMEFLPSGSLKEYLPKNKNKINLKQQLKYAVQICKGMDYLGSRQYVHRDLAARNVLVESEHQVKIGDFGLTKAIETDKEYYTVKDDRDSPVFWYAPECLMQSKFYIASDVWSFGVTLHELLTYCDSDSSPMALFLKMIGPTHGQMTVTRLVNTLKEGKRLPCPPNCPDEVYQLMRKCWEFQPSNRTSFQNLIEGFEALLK
T2 sequence (P52333 783-1124): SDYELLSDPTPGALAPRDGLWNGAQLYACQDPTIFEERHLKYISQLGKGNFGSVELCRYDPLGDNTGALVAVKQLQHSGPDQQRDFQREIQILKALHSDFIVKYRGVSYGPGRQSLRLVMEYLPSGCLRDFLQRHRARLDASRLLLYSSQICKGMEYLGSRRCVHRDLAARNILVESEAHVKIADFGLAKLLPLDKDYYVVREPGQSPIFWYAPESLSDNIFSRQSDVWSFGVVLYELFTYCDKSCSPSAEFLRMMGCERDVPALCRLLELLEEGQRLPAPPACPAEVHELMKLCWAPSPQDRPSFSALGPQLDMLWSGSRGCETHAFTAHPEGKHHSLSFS
T1 sequence (O60674 812-1132): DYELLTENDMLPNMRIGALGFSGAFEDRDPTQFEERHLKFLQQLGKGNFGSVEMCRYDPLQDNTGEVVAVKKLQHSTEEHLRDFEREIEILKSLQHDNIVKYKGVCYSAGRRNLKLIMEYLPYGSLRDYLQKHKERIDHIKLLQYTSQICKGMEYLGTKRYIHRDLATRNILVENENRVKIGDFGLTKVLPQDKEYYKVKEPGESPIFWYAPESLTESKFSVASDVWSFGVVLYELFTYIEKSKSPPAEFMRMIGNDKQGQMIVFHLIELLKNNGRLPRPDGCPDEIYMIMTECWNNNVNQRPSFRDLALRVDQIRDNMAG

Regarding `NCC(F)(F)c1nc2cnc3[nH]ccc3c2n1C1CCN(Cc2cccnc2)CC1` [Example 588, 2,2-Difluoro-2-[1-(1-pyridin-3-ylmethyl-piperidin-4-yl)-1,6-dihydro-1,2,3,5,6-tetraaza-as-indacen-2-yl]-ethylamine], the inhibitory constant (Ki) amounted to 13.3 nM on JAK2, 5.73 nM at JAK3, 5.81 nM on JAK1 and 584 nM on TYK2.
The corresponding values for `Cc1nc2cnc3[nH]ccc3c2n1[C@H]1CC[C@H](NC(C)CC#N)CC1` (stereo partly drawn) [Example 590, Trans 3-[4-(2-methyl-6H-1,2,3,5,6-tetraaza-as-indacen-1-yl)-cyclohexylamino]-butyronitrile] are 13.5 nM, 17.1 nM, 2.74 nM and 43.1 nM.
The corresponding values for `Cc1nc2cnc3[nH]ccc3c2n1[C@H]1CC[C@H](NCC(F)(F)F)CC1` [Example 591, Trans[4-(2-methyl-6H-1,2,3,5,6-tetraaza-as-indacen-1-yl)-cyclohexyl]-(2,2,2-trifluoro-ethyl)-amine] are 1.87 nM, 13 nM, 0.64 nM and 2.51 nM.
As for `COCCNC(=O)N(C)[C@H]1CC[C@H](n2cnc3cnc4[nH]ccc4c32)CC1` [Example 592, Trans 3-(2-Methoxy-ethyl)-1-methyl-1-[4-(6H-1,2,3,5,6-tetraaza-as-indacen-1-yl)-cyclohexyl]-urea], the inhibitory constant (Ki) at JAK2 was 15.5 nM; at JAK3, 344 nM; at JAK1, 12 nM; at TYK2, 215 nM.
`O=C(N[C@H]1CC[C@H](n2cnc3cnc4[nH]ccc4c32)CC1)N1CCOCC1` [Example 593, Trans Morpholine-4-carboxylic acid [4-(6H-1,2,3,5,6-tetraaza-as-indacen-1-yl)-cyclohexyl]-amide]: the inhibitory constant (Ki) on JAK2 came out at 36.5 nM; at JAK3 it was 316 nM; on JAK1, 27.1 nM; on TYK2, 398 nM.
The corresponding values for `COCCNC(=O)O[C@H]1CC[C@H](n2cnc3cnc4[nH]ccc4c32)CC1` [Example 595, Trans (2-methoxy-ethyl)-carbamic acid 4-(6H-1,2,3,5,6-tetraaza-as-indacen-1-yl)-cyclohexyl ester] are 28.9 nM, 96.8 nM, 10.4 nM and 185 nM.
With `Cc1nc2cnc3[nH]ccc3c2n1[C@H]1CC[C@H](N2CCNC2=O)CC1` [Example 598, Trans 1-[4-(2-methyl-6H-1,2,3,5,6-tetraaza-as-indacen-1-yl)-cyclohexyl]-imidazolidin-2-one formic acid salt], the Ki was determined as 8.34 nM on JAK2, 12.1 nM at JAK3, 7.31 nM at JAK1 and 45.5 nM on TYK2.
As for `CC(=O)NCCOC(=O)N[C@H]1CC[C@H](n2cnc3cnc4[nH]ccc4c32)CC1` [Example 599, Trans[4-(6H-1,2,3,5,6-tetraaza-as-indacen-1-yl)-cyclohexyl]-carbamic acid 2-acetylamino-ethyl ester], the inhibitory constant (Ki) on JAK2 was 26.4 nM; at JAK3, 186 nM; at JAK1 it was 7.68 nM; at TYK2 it was 120 nM.
The matching figures for `COC(=O)N[C@H]1CC[C@H](n2c(CO)nc3cnc4[nH]ccc4c32)CC1` [Example 600, Trans[4-(2-hydroxymethyl-6H-1,2,3,5,6-tetraaza-as-indacen-1-yl)-cyclohexyl]-carbamic acid methyl ester]: 23.2 nM, 172 nM, 2.73 nM and 20.8 nM.
Take `O=C(N[C@H]1CC[C@H](n2c(CO)nc3cnc4[nH]ccc4c32)CC1)OCC1CC1` [Example 601, Trans[4-(2-hydroxymethyl-6H-1,2,3,5,6-tetraaza-as-indacen-1-yl)-cyclohexyl]-carbamic acid cyclopropylmethyl ester]: the Ki at JAK2 was found to be 57.1 nM; at JAK3, 111 nM; on JAK1 it was 3.89 nM; on TYK2 it was 149 nM.
The matching figures for `O=C1OC(CO)CN1[C@H]1CC[C@H](n2cnc3cnc4[nH]ccc4c32)CC1` (stereo partly drawn) [Example 602, Trans 5-hydroxymethyl-3-[4-(6H-1,2,3,5,6-tetraaza-as-indacen-1-yl)-cyclohexyl]-oxazolidin-2-one]: 2.41 nM, 56.7 nM, 1.67 nM and 12.7 nM.
As for `CN(C)C(=O)N[C@H]1CC[C@H](n2cnc3cnc4[nH]ccc4c32)CC1` [Example 603, Trans 1,1-dimethyl-3-[4-(6H-1,2,3,5,6-tetraaza-as-indacen-1-yl)-cyclohexyl]-urea], the inhibition constant Ki was 20.8 nM at JAK2, 237 nM on JAK3, 9.76 nM at JAK1 and 87 nM on TYK2.
The matching figures for `Cc1nc2cnc3[nH]ccc3c2n1[C@H]1CC[C@H](NC(=O)N(C)C)CC1` [Example 604, Trans 1,1-dimethyl-3-[4-(2-methyl-6H-1,2,3,5,6-tetraaza-as-indacen-1-yl)-cyclohexyl]-urea]: 46 nM, 249 nM, 16.4 nM and 244 nM.
The matching figures for `Cc1nc2cnc3[nH]ccc3c2n1[C@H]1CC[C@H](OC(=O)N(C)C)CC1` [Example 605, Trans dimethyl-carbamic acid 4-(2-methyl-6H-1,2,3,5,6-tetraaza-as-indacen-1-yl)-cyclohexyl ester]: 43.1 nM, 152 nM, 15.2 nM and 129 nM.
The corresponding values for `COC(=O)N(C)[C@H]1CC[C@H](n2c(CO)nc3cnc4[nH]ccc4c32)CC1` [Example 606, Trans[4-(2-hydroxymethyl-6H-1,2,3,5,6-tetraaza-as-indacen-1-yl)-cyclohexyl]-methyl-carbamic acid methyl ester] are 65.2 nM, 455 nM, 28.8 nM and 112 nM.
`Cc1nc2cnc3[nH]ccc3c2n1[C@H]1CC[C@H](NC(=O)OCC(F)F)CC1` [Example 607, Trans[4-(2-methyl-6H-1,2,3,5,6-tetraaza-as-indacen-1-yl)-cyclohexyl]-carbamic acid 2,2-difluoro-ethyl ester]: the Ki on JAK2 is 4.46 nM; on JAK3, 11.2 nM; at JAK1, 0.6 nM; at TYK2, 23.1 nM.
Regarding `CNC(=O)N(C)[C@H]1CC[C@H](n2c(C)nc3cnc4[nH]ccc4c32)CC1` [Example 608, Trans 1,3-dimethyl-1-[4-(2-methyl-6H-1,2,3,5,6-tetraaza-as-indacen-1-yl)-cyclohexyl]-urea], the inhibition constant (Ki) turned out to be 12.4 nM on JAK2, 158 nM on JAK3, 17.8 nM at JAK1 and 182 nM at TYK2.
The matching figures for `C[C@@H](O)c1nc2cnc3[nH]ccc3c2n1[C@H]1CC[C@H](OC(=O)N(C)C)CC1` [Example 609, Trans dimethyl-carbamic acid 4-[2-((R)-1-hydroxy-ethyl)-6H-1,2,3,5,6-tetraaza-as-indacen-1-yl]-cyclohexyl ester]: 641 nM, 701 nM, 96.7 nM and 910 nM.
With `C[C@@H](O)c1nc2cnc3[nH]ccc3c2n1[C@H]1CC[C@H](N2CC[C@@H](C#N)C2)CC1` [Example 610, Trans (R)-1-{4-[2-((R)-1-hydroxy-ethyl)-6H-1,2,3,5,6-tetraaza-as-indacen-1-yl]-cyclohexyl}-pyrrolidine-3-carbonitrile], the Ki amounted to 35.5 nM at JAK2, 139 nM on JAK3, 7.25 nM at JAK1 and 17.7 nM at TYK2.
The matching figures for `C[C@@H](O)c1nc2cnc3[nH]ccc3c2n1[C@H]1CC[C@@H](N2CCC(F)(F)CC2)CC1` [Example 612, Cis (R)-1-{1-[4-(4,4-difluoro-piperidin-1-yl)-cyclohexyl]-1,6-dihydro-1,2,3,5,6-tetraaza-as-indacen-2-yl}-ethanol]: 455 nM, 509 nM, 52.9 nM and 224 nM.
The matching figures for `N#CC1CCN([C@H]2CC[C@H](n3c(CO)nc4cnc5[nH]ccc5c43)CC2)CC1` [Example 613, Trans 1-[4-(2-hydroxymethyl-6H-1,2,3,5,6-tetraaza-as-indacen-1-yl)-cyclohexyl]-piperidine-4-carbonitrile]: 15.1 nM, 318 nM, 2.58 nM and 14.5 nM.
`C[C@@H](O)c1nc2cnc3[nH]ccc3c2n1[C@H]1CC[C@H](NCC(F)(F)F)CC1` [Example 614, Trans (R)-1-{1-[4-(2,2,2-trifluoro-ethylamino)-cyclohexyl]-1,6-dihydro-1,2,3,5,6-tetraaza-as-indacen-2-yl}-ethanol]: the Ki was 13.2 nM on JAK2, 63.3 nM on JAK3, 0.76 nM on JAK1 and 3.01 nM on TYK2.
The matching figures for `C[C@@H](O)c1nc2cnc3[nH]ccc3c2n1[C@H]1CC[C@H](NCCC#N)CC1` [Example 615, Trans 3-{4-[2-((R)-1-hydroxy-ethyl)-6H-1,2,3,5,6-tetraaza-as-indacen-1-yl]-cyclohexylamino}-propionitrile]: 57.5 nM, 137 nM, 1.96 nM and 21.5 nM.
